“Also recorded” adds a separate entry of the source. Positions of bridges follow the written chain, without caps; N, C: chain ends. Residues, ends and D or L forms follow the SMILES beside them.
Experiments:
[1] = molecular target: human hERG channel (Kv11.1) (Homo sapiens, UniProt Q12809); experiment: in vitro
Experimental: (§1) Voltage pulses and whole-cell recordings were achieved using the PatchControl384 v1.5.3 software (Nanion Technologies, Munich, Germany) and the Biomek v1.0 interface (Beckman Coulter, Villepinte, France). […] After cell catching, sealing, whole-cell formation, liquid application, recording, and data acquisition were all performed sequentially and automatically. […] A single concentration of peptide was tested on each cell for building the full-inhibition curves.

human hERG channel = human hERG channel (Homo sapiens, UniProt Q12809); experiment: in vitro; details: human
Experimental: as §1

[2] = system: hiPS-CMs (clone C2a, ventricular-like); experiment: Manual patch-clamp of spontaneous action potentials in hiPS-CMs; format: cell-based, human
Description: For this study, we used a non-commercial hiPS cell clone (C2a) that has been fully characterized earlier in the laboratory. The properties of the cardiomyocytes derived from this clone may differ to some extent from those of commercial clones, but this should not affect the nature of the conclusions derived from our investigations. […] The effects on AP characteristics also included the depolarization of the maximum diastolic potential (MDP) from −52.2 ± 1.7 mV to −36.1 ± 2.3 mV (n = 7, Figure 2D) and the decrease of maximal upstroke velocity from 6.9 ± 0.9 mV/s (vehicle, n = 7) to 4.6 ± 0.9 mV/s (BeKm-1, n = 7), representing an average 1.5-fold reduction (Figure 2E). […] The action potential duration (APD) at 30% and 50% of repolarization were spared, which is consistent with the role of hERG in the late phase of repolarization in these cells (Figure 2G). In contrast, BeKm-1 was able to delay the repolarization of these cells, increasing the APD at 90% repolarization (APD90) from 95.0 ± 8.4 ms (vehicle, n = 7) to 117.4 ± 11.3 ms (BeKm-1, n = 7; 23% increase) (Figure 2G). While these values could theoretically be corrected for the BeKm-1-induced variability in cycle length (Figure 2C) using the Fridericia cube root formula, the corrected data would be meaningless because of the additional depolarization in MDP (Figure 2D).
hiPS-CMs: All experiments were performed on the human-induced pluripotent stem cell (hiPSC) clone C2a that has been previously characterized, including cardiac differentiation and electrophysiology data. Cells were expanded on stem cell-qualified matrigel-coated plates (0.05 mg/mL; BD Bioscience, Le Pont de Claix, France) and cultured in StemMACS iPS-BREW XF medium (Miltenyi Biotec, Paris, France). Cells were passaged every […] using Gentle Cell Dissociation Buffer (StemCell Technologies, Grenoble, France). Prior to differentiation, cells were cultured as a monolayer in StemMACS iPS-brew supplemented with 1 × Y-27632 Rho-associated, coiled-coil containing protein kinase (ROCK) inhibitor (StemCell Technologies, Grenoble, France). When hiPSCs reached proper confluence, they were differentiated into cardiomyocytes using previously described « Matrix sandwich » protocol. At day 20 ± 1 of differentiation, beating cardiomyocytes were manually dissected and isolated from non-beating cells. Briefly, cardiomyocytes were washed with phosphate-buffered saline (PBS) and treated with TrypLE Express (10x) (Thermo Fisher Scientific, Illkirch-Graffenstaden, France) for 5 min at 37 °C. The enzyme was inactivated by adding RPMI1640 medium containing 20% (vol/vol) KnockOut Serum Replacement (KSR) (Thermo Fisher Scientific, Illkirch-Graffenstaden, France). The supernatant was removed, and cells were suspended in RPMI1640 medium containing 20% (vol/vol) KSR and ROCK inhibitor. Then, the cells were plated on specific supports suitable for functional assessments.
Manual patch clamp: Single-cell dissociated hiPS-CMs were plated at low density on matrigel-coated 35 mm Petri dishes (Nunc from Thermo Fisher Scientific, Illkirch-Graffenstaden, France). Electrophysiological experiments were performed 12 to 14 days after dissociation. APs were recorded in the current-clamp mode, using the amphotericin-B-perforated patch-clamp technique. All experiments were conducted at 37 °C. APs were recorded either at basal state (spontaneous APs) or using the dynamic patch-clamp method to electronically mimic the expression of the inward rectifier potassium current, IK1 [23, 24]. The resting membrane potential (RMP) was set to −80 ± 5 mV by injecting 2 to 2.8 pA/pF in silico IK1 density. This level of current was set so that about 80% of the ventricular-like hiPS-CMs could reach these physiological RMP values. The remaining cells were discarded from the recording process. […]

human hERG channel (Kv11.1), sequence (Q12809 whole entry): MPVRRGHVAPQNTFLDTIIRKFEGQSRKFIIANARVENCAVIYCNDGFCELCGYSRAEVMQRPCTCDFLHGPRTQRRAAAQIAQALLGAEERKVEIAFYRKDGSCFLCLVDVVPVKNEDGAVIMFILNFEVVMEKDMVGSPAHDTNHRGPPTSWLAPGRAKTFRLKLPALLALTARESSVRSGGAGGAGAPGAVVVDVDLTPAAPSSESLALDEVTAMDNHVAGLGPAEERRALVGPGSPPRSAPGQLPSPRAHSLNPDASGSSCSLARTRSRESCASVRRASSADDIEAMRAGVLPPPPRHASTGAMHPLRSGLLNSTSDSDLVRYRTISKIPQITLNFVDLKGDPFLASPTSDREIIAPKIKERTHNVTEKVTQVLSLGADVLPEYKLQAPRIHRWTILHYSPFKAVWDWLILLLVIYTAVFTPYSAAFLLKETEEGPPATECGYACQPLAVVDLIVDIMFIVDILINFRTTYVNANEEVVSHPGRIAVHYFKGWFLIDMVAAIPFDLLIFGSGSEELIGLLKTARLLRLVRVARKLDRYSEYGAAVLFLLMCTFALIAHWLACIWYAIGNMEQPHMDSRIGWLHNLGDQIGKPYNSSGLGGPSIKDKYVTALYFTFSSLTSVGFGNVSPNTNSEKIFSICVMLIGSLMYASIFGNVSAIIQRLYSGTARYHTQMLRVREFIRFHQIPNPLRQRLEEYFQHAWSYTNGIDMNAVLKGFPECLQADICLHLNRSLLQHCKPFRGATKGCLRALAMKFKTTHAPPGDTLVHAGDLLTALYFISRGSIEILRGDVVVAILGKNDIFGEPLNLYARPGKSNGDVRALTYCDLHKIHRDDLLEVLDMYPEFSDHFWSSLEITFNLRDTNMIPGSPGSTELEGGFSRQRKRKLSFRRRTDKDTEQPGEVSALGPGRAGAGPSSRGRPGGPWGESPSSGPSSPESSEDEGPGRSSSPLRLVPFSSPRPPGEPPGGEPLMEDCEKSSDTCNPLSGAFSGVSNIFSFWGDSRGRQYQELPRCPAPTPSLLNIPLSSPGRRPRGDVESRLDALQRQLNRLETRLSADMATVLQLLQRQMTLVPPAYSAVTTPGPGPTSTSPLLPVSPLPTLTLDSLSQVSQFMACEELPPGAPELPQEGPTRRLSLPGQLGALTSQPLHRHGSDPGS
human hERG channel, sequence (Q12809 whole entry): as above

With CC[C@H](C)[C@H](NC(=O)[C@H](CC(=O)O)NC(=O)[C@@H](NC(=O)[C@@H]1CCCN1C(=O)[C@@H](N)CCCNC(=N)N)[C@@H](C)O)C(=O)N[C@@H](CCCCN)C(=O)N[C@H]1CSSC[C@@H]2NC(=O)[C@H](CCCNC(=N)N)NC(=O)CNC(=O)[C@H](CC(N)=O)NC(=O)[C@H]([C@@H](C)O)NC(=O)[C@H](CCCCN)NC(=O)CNC(=O)[C@H](Cc3ccccc3)NC(=O)[C@H](CCCNC(=N)N)NC(=O)[C@H](CO)NC(=O)[C@H](CCCCN)NC(=O)[C@@H]3CSSC[C@@H](C(=O)N[C@@H](Cc4ccccc4)C(=O)O)NC(=O)[C@H](CC(=O)O)NC(=O)[C@H](CSSC[C@H](NC(=O)[C@H](CCC(N)=O)NC(=O)[C@H](Cc4ccc(O)cc4)NC(=O)[C@H](CO)NC(=O)[C@H](CCC(=O)O)NC(=O)[C@H](CO)NC1=O)C(=O)N[C@@H](Cc1ccccc1)C(=O)N1CCC[C@H]1C(=O)N[C@@H](C(C)C)C(=O)N3)NC(=O)[C@H](Cc1ccccc1)NC(=O)CNC(=O)[C@H](CC(N)=O)NC(=O)[C@H](C(C)C)NC2=O [BeKm-1] (H-RPTDIKCSESYQCFPVCKSRFGKTNGRCVNGFCDCF-OH; disulfide 7-28, 13-33, 17-35 (inferred); N-terminus and C-terminus assumed) the “Hill number, hERG current inhibition” value ([1]; HEK293-hERG, Hill equation fit of dose-response curve) was 1.9, the “maximal block of hERG currents (plateau)” value ([1]; at maximally effective doses of the peptide (100 nM)) was 90% and the IC50 at 13 min (human hERG channel) was 1.9 ± 0.3 nM. For the same compound, the AP frequency ([2]; 5 nM BeKm-1, 37 °C, vehicle 2.50 ± 0.20 Hz, n = 7, mean ± SEM, significant) was 0.70 ± 0.26 Hz, the “kinetics of AP parameter changes” value ([2]; 5 nM application, Figure S2) was “changed according to similar kinetics” and the “maximal upstroke velocity, fold reduction” value ([2]; 5 nM vs vehicle, average) was 1.5 -fold. The APD90 increase ([2]; 5 nM vs vehicle, spontaneous APs) was 23%, the “restitution of AP parameters after toxin washout” value ([2]; 5 nM, representative time course, Figure S2) was “rather rapid restitution of these parameters after toxin washout” and the “APD at 30% and 50% of repolarization” value ([2]; 5 nM, spontaneous APs) was “spared”. For the same compound, the “APD at 90% repolarization (APD90)” value ([2]; 5 nM, spontaneous APs, vehicle 95.0 ± 8.4 ms, n = 7, mean ± SEM, not corrected for cycle length) was 117.4 ± 11.3 ms, the APD90 variability ([2]; 5 nM, Poincaré plot) was “increased” and the AP rhythm variability ([2]; 5 nM, Poincaré plot of consecutive APs) was “increase of rhythm variability”. For the same compound, the “maximal upstroke velocity (dV/dtmax)” value ([2]; 5 nM, vehicle 6.9 ± 0.9 mV/s, n = 7, mean ± SEM) was 4.6 ± 0.9 mV/s, the AP overshoot ([2]; 5 nM, vehicle 29.9 ± 3.1 mV, n = 7, mean ± SEM, not significant) was 22.2 ± 6.4 mV and the “maximum diastolic potential (MDP)” value ([2]; 5 nM, vehicle −52.2 ± 1.7 mV, n = 7, mean ± SEM) was −36.1 ± 2.3 mV. The “beating / AP arrest” value ([2]; 100 nM, representative trace of single hiPS-CM) was “AP arrest; also recorded: complete beating arrest by a major membrane depolarization”, the “early afterdepolarizations (EADs)” value ([2]; spontaneously beating ventricular-like cells) was “never observed” and the reversibility on wash ([2]; wash after 5 nM, n = 5) was “fully restored all parameters”.
